{"source": "patent US11053454B2", "about": "“Fragrance compositions comprising essential oils and products comprising same for promoting wellness” (THIS WORKS PRODUCTS LIMITED, priority 2018, dated 2021)", "system": "primary olfactory cortex (piriform cortex)", "assay": "fMRI connectivity analysis with piriform cortex as seed", "type": "in vivo, human", "description": "The pre-processed data were analyzed with the connectivity toolbox in SPM. The primary olfactory cortex (piriform cortex) was used as a seed and the connectivity from this very first olfactory target area to other areas in the brain was modeled. A statistical threshold of 0.05, FDR corrected, was used.", "note": "Like-named read-outs stand apart in the source and are kept apart here."}
{"compound": "OCCc1ccccc1", "note": "[PEA, Phenylethylalcohol]", "values": [{"measurement": "negative connectivity from the piriform cortex", "value": "negative connectivity to the posterior cingulate cortex"}, {"measurement": "negative connectivity from the piriform cortex", "setting": "listed as control odor", "value": "negative connectivity was detected to the left parietal frontal gyrus"}, {"measurement": "overall connectivity: intensity", "setting": "threshold 0.05 FDR corrected", "value": 170}, {"measurement": "overall connectivity: nodes", "setting": "threshold 0.05 FDR corrected", "value": 41, "unit": "nodes"}]}
